Source: patent US8058460B2, “Near infrared fluorophore for the selective labelling of membranes in cells” (Universität Heidelberg, priority 2006, dated 2011)

Tests used:
HeLa cell = test: Colocalization experiments with wheat-germ agglutinin (WGA); assay type: cell-based; settings: in vivo stains with KAYA1 compared with WGA in fixed cells (FIGS. 2a to 2c, 3a to 3c)
From the text: Wheat-germ agglutinin (WGA) is a glycoprotein (lectin) that recognizes and binds to specific glycoconjugates such as N-acetylneuraminic acid, N-acetyl glucosamine, membrane glycoprotein, chitin, cartilage, glucosamineglycans, glycolipids, and glycoproteins with sialic acid residues (cf. Monsigny M., Roche A-C., Sene C., raget-Dana R., Delmotte F., Sugar-Lectin Interactions: How does Wheat-germ Agglutinin bind Sialoglycoconjugates?, Eur. J. Biochem., 1980, (104), 147-153; Wright C S., Crystal structure of a wheat germ agglutinin/glycophorin-sialoglycopeptide receptor complex. Structural Basis for cooperative lectin-cell binding, J. Biol. Chem., 1992, 267(20), 14345-52). WGA is commonly used to stain the golgi apparatus, nuclear envelop and plasma membrane of fixed cells.
For the colocalization experiments the cells are stained with KAYA1 at the same conditions as described for in vivo labelling. Then the cells are fixed with HEPEM buffer and the membranes of the cells are permeabilized 30 min at 4° C. with 50 ml 1×PBS containing 50 mg Saponin. After washing the cells with 1×PBS for 5 min at room temperature the cells are incubated 15 min with 50 μg/ml WGA at 37° C. Finally the cells are washed with 1×PBS and covered with Vectashield, prior to analysis.

[1] = test system: membranes of live HeLa cells; test: In vivo labelling of live cells, confocal laser scanning microscopy; assay type: cell-based; settings: live HeLa cells after incubation with KAYA1 labelling solution (FIGS. 2a to 2c)
Procedure: A protocol for the labelling of live cells was optimized for cultured HeLa cells (epithelial, cervical carcinoma), for LnCAP (Prostatacancer, fibroblasts) and VH7 (foreskin fibroblasts) that are adhering to coverslips. Cells are cultured on coverslips in DEMEM (VH7, HeLa) RPMI (LnCAP) with 10% foetal calf serum, 1 mM glutamine and antibiotics and incubated at 37° C. in an atmosphere of 5% CO2. A 5 μM solution of KAYA1 is prepared in a HEPES-Glucose buffer medium containing 115 mM NaCl, 1.2 mM CaCl2, 1.2 mM MgCl2, 1.2 mM K2HPO4, 20 mM HEPES, 10 mM Glucose, pH 7.4. After removing the cell medium the cells are incubated with the labeling solution for 1 minute at 37° C. The labeling solution is removed, the cells washed in 1×PBS and incubated with the cell medium, prior to analysis.
(§1) The System used was a Leica DM IRBE (TSC/SP2) microscope operating with a helium/neon laser. Detection of all probes was visualized with the laser emission line 633 nm, the detection window was realized between 650 nm-800 nm.
CLSM allows the blur from out of focus regions of the fluorescent specimen to be blocked, resulting in crisp, sharp images from well defined planes in the axial direction. Therefore the images presented here show well defined optical sections in z-axis of the microscope.

Solubility of KAYA1 = assay type: physicochemical
Procedure: The Boc protecting group of compound A is cleaved with trifluoro acetic acid (6.7 ml, 87 mmol) in methanol (3 ml, 74 mmol) for 18 hours at room temperature. After evaporation and recrystallization in anisole KAYA1 was characterized by electrospray mass spectrometry: (Mfound 389.1245 m/e, 391.1611 m/e, Mcalc 388.12 m/e, 390.12 m/e); 1H NMR spectroscopy (CD3OD): S=1.39 ppm (m, 4H), 1.59 ppm (m, 2H), 1.64 ppm (m, 2H), 2.80 ppm (t, 2H), 3.24 ppm (t, 2H), 7.03 ppm (d, 1H), 7.08 ppm (d, 1H), 7.42 ppm (d, 1H), 7.65 ppm (d, 1H), 7.92 ppm (s, 1H); UV-Vis spectrophotometry (Absmax: 574 nm and 623 nm) and fluorimetry (Emmax: 660 nm).

[2] = test system: cell membranes of fixed cells; test: In vitro labelling of fixed cells; assay type: cell-based; settings: formaldehyde-fixed cells, 5 μM in 1×PBS, 5 minutes at 37° C.
Procedure: Staining the cell membranes of fixed cells is also compatible with KAYA1. For staining, the cells are cultured at the same conditions as described for in vivo labelling. The cells are fixed with HEPEM buffer containing 3.7% formaldehyde, 65 mM PIPES, 30 mM HEPES, 10 mM EGTA, 2 mM MgCl2, pH 6.9 for 15 min. Then the cells are washed twice with 1×PBS for 7.5 min. Finally the cell membranes are stained with KAYA1 (5 μM in 1×PBS) for 5 minutes at 37° C., washed with 1×PBS and covered with Vectashield.
as §1

In the case of `NCCCCCCNc1ccc(O)c2c1C(=O)c1c(O)ccc(Cl)c1C2=O` [KAYA1, 1-(6-amino-hexylamino)-5-chloro-4,8-dihydroxy-anthraquinone], the “similarity of stained regions with binding regions of WGA” value (HeLa cell) is reported as “high similarity with the specific binding regions of WGA”, the “membrane structures visualized by the dye” value [1] is reported as “visualizes the cytoplasmatic membrane, the nuclear membrane and the membrane of certain organelles such as endoplasmatic reticulum and golgi apparatus” and the solubility in methanol (Solubility of KAYA1; methanol) is reported as “soluble”. The solubility in water (Solubility of KAYA1; water) was “moderately soluble” and the “staining of cell membranes of fixed cells” value [2] was “compatible”.
